A short description of data set [1]: 19F NMR pH titration of fluorinated indicators. It counts as physicochemical. The conditions noted are these: for pK (theoretical titration curve, FIG. 2): 19F shift as a function of pH; for δ1 (limiting 19F shift difference of theoretical curve, FIG. 2) / δ2 (limiting 19F shift difference of theoretical curve, FIG. 2): shift difference between the two fluorine resonances. The text has this:
The sample also contained Sodium Flouride as an internal chemical shift standard.
The shift for 5F NEAP-1 is referenced to the tetrafluorophthalate ^19 F resonance, while the data for 5F NEAP-2 and 5F NEAP-3 correspond to the shift differences between the two fluorine resonances. The theoretical curves correspond to: δ1 =35.6 ppm, δ2 24.7 ppm, pK=6.85 for 5F NEAP-1; δ1 =10.3 ppm, δ2 =-0.8 ppm, pK=6.6 for 5F NEAP-2; and δ1 =24.1, δ2 =13.4, pK=6.8 for 5F NEAP-3.
The magnitude of this shift, however, is insignificant in comparison to the 11 ppm titration shift of the indicator. In any event, the magnitude of this shift may be determined and corrected. In alternate embodiments, for an indicator such as NEAP-3 which contain a second fluorine to serve as a chemical shift reference both fluorines will experience a similar intracellular shift, making correction unnecessary. There is also exchange broadening of the resonance, which becomes more significant at higher magnetic field strengths. In general, the degree of broadening depends on the dissociation rate constant of the proton from the indicator. This rate is dependent on the particular indicator, on the temperature, and on the composition of the solution in which the indicator is placed. […] If the exchange is sufficiently rapid on the NMR time scale, i.e., the dissociation rate constant of the protonated indicator k-1 >>πΔv/√ 2, where Δv is the chemical shift difference of the resonance under study between the protonated and unprotonated forms of the indicator, then the observed chemical shift can be used to determine the intracellular pH according to the relation: [formula] where pK is the pK of the indicator, δo is the observed chemical shift, and δU and δP are the shifts of the unprotonated and fully protonated forms of the indicator, respectively. Although the above equation is expected to be generally adequate, at very high fields and low temperatures, the exchange might become slow enough to require a correction, as described, for example, in London, J. Magn. Reson. Series A 104, 190-196 (1993).

Data set [2] relates to human erythrocytes. Nature of the data set: Membrane crossing of extracellular indicator in human erythrocyte suspension (19F NMR). It counts as in vitro ADME. The conditions noted are these: free acid added extracellularly. How it is done: (§1) FIGS. 3A and 3B show the ^19 F NMR spectra of human erythrocytes loaded with 5F NEAP-1 acetoxymethyl ester suspended in a solution containing 120 mM sodium chloride (NaCl) and 20 mM tris-[N-(2-hydroxyethyl)piperazine-N'-(2-ethanesulfonic acid)] ("tris-HEPES"). Tetrafluorophthalate ("TFPH") is also included as a chemical shift standard. […] The resonance associated with intracellular NEAP is denoted as "INTRA"; the resonance associated with extracellular NEAP is denoted as "EXTRA".
(§2) As an illustration of the use of the current invention, the fluorinated indicator 5F NEAP-1 is used to determine the intra- and extracellular pH in a suspension of human erythrocytes. […] Based on the chemical shift difference between the NEAP fluorine resonance and the standard, an intracellular pH value of 7.3 for this preparation is determined. Subsequently, some additional 5F NEAP-1 was added as the free acid. […] It is interesting to note that the extracellular resonance is somewhat broader than the intracellular resonance. […] An extracellular pH value of 7.0 is determined from the shift (this situation is somewhat unusual since in more typical physiological preparations the intracellular pH is lower than the extracellular pH). As noted in the above sections, small errors which result from the intracellular shift displacement of 0.1-0.3 ppm, can be, but have not been accounted for. […]

The test system of data set [3] is human erythrocytes. The data set can be described thus: pH measurement in human erythrocytes using 19F-NMR. It counts as cell-based. How it is done:
as §1
According to the present invention, intracellular pH can be determined using ^19 F NMR spectroscopy of cells containing a compound of Formula I or II. Measurements have been carried out on several physiological systems of interest, including, for example, human erythrocytes and perfused rat heart. The ^19 F NMR shifts of 5F NEAP-1, 5F NEAP-2, or 5F NEAP-3 provide information which is directly interpretable in terms of the cytosolic pH. These measurements can be made using any standard pulsed NMR spectrometer equipped with a fluorine NMR probe. Typically, at least 100 transients are required for the measurements.
III. pH Measurement in Human Erythrocytes Using ^19 F-NMR
as §2

[4] abbreviates: referenced to the tetrafluorophthalate 19F resonance.

SMILES strings stand for the structures. “Also recorded” adds a separate entry of the source.

Turning to `CCN(CC(=O)O)c1ccc(F)cc1OCC(=O)O` [5F NEAP-1, N-ethyl-2-amino-5-fluorophenol-N,O-diacetic acid], in data set [1], the “downfield 19F shift of the para-fluorine upon protonation of the nitrogen (titration shift)” value was “about 11 ppm” and the “pK (theoretical titration curve, FIG. 2)” value is 6.85. For the same molecule, the pK in data set [1] (as stated in summary) was 6.8. In data set [1] (setting [4]), the “δ1 (limiting 19F shift of theoretical curve, FIG. 2)” value came out at 35.6 ppm and the “δ2 (limiting 19F shift of theoretical curve, FIG. 2)” value is reported as 24.7 ppm. Moreover, the “crossing of the cell membrane” value with human erythrocytes [2] was “will not readily cross the cell membrane; also recorded: does not cross the cellular membrane in appreciable amounts”. Besides, the “extracellular pH determined with indicator” value in the data set on human erythrocytes [3] (free acid added to suspension, TFPH standard) amounted to 7.0. Further, the “difference between intra- and extracellular pH giving well resolved NMR resonances” value in the data set on human erythrocytes [3] (intracellular vs extracellular resonance) came out at 0.3 pH unit. In addition, in the data set with human erythrocytes [3] (loaded 1 hour with acetoxymethyl ester, 120 mM NaCl, 20 mM tris-HEPES, TFPH standard), the “intracellular pH determined with indicator” value is given as 7.3.

`CCN(CC(=O)O)c1ccc(F)cc1OCc1ccc(C(=O)O)cc1F` [5F NEAP-2, N-Ethyl-2-(2-fluoro-4-carboxybenzyloxy)-4-fluoroaniline-N-acetic acid]: in data set [1], the “pK (theoretical titration curve, FIG. 2)” value worked out at 6.6; the “δ1 (limiting 19F shift difference of theoretical curve, FIG. 2)” value is reported as 10.3 ppm; the “δ2 (limiting 19F shift difference of theoretical curve, FIG. 2)” value is on record as -0.8 ppm.

For `CCN(CC(=O)O)c1ccc(F)cc1OCCOc1ccc(N(CC(=O)O)CC(=O)O)cc1F` [5F NEAP-3, 1-(N-Ethylamino-5-fluorophenoxy)-2-(2-fluoro-4-aminophenoxy)ethane, N,N',N'-triacetic acid], in data set [1], the “pK (theoretical titration curve, FIG. 2)” value is recorded as 6.8. Besides, in data set [1] (FIG. 1), the “pH sensitivity of the fluorine resonances” value was “one of the fluorine resonances is pH sensitive, and the second is almost completely pH insensitive”. In data set [1] (unit not given), the “δ1 (limiting 19F shift difference of theoretical curve, FIG. 2)” value is on record as 24.1 and the “δ2 (limiting 19F shift difference of theoretical curve, FIG. 2)” value is on record as 13.4.

The values are drawn from patent US5639906A, “Fluorescent and NMR sensitive pH indicators” (The United States of America as represented by the …, priority 1994, dated 1997).
